According to PubChem BioAssay (NCI):
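Where inhibition never reached the appropriate level, the endpoint shown equals the highest concentration tested. Otherwise, values were interpolated linearly from a five-concentration, 48-hour dose response in 96-well plates. TGI is the concentration that stops growth completely.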

What was measured:
Experiment in all cases: DTP human tumour cell line panel, 48 h
[1] = test system: KM12 colon
[2] = test system: COLO 205 colon
[3] = test system: HOP-18 NSCLC
[4] = test system: KM20L2 colon
[5] = test system: LXFL 529 NSCLC
[6] = test system: RPMI-8226 leukemia
[7] = test system: MOLT-4 leukemia
[8] = test system: A498 renal
[9] = test system: HCT-116 colon
[10] = test system: HCT-15 colon
[11] = test system: M19-MEL melanoma
[12] = test system: NCI-H226 lung
[13] = test system: OVCAR-4 ovarian
[14] = test system: OVCAR-5 ovarian
[15] = test system: U251 CNS
[16] = test system: RXF 393 renal
[17] = test system: SNB-19 CNS
[18] = test system: SK-MEL-28 melanoma
[19] = test system: HOP-62 NSCLC
[20] = test system: CCRF-CEM leukemia
[21] = test system: K-562 leukemia
[22] = test system: SNB-78 CNS
[23] = test system: ACHN renal
[24] = test system: SR leukemia
[25] = test system: UACC-62 melanoma
[26] = test system: HCC-2998 colon
[27] = test system: 786-0 renal
[28] = test system: EKVX NSCLC
[29] = test system: SF-268 CNS
[30] = test system: UO-31 renal
[31] = test system: SN12C renal
[32] = test system: RXF-631 renal
[33] = test system: SF-295 CNS
[34] = test system: OVCAR-3 ovarian
[35] = test system: OVCAR-8 ovarian
[36] = test system: TK-10 renal
[37] = test system: CAKI-1 renal
[38] = test system: A549 NSCLC
[39] = test system: XF 498 CNS
[40] = test system: SW-620 colon
[41] = test system: HOP-92 NSCLC
[42] = test system: LOX IMVI melanoma
[43] = test system: SNB-75 CNS
[44] = test system: M14 melanoma
[45] = test system: DMS 114 small cell lung
[46] = test system: NCI-H460 lung
[47] = test system: HT29 colon
[48] = test system: UACC-257 melanoma
[49] = test system: HL-60(TB) leukemia
[50] = test system: SK-MEL-2 melanoma
[51] = test system: MALME-3M melanoma
[52] = test system: SK-MEL-5 melanoma
[53] = test system: SF-539 CNS
[54] = test system: IGROV1 ovarian
[55] = test system: NCI-H522 lung
[56] = test system: SK-OV-3 ovarian
[57] = test system: NCI-H23 lung
[58] = test system: DMS 273 small cell lung

With `N#CSCc1nc2ccc(Cl)cc2c(-c2ccccc2)[n+]1[O-]` the TGI [1] was 51.9 µM, the TGI [2] was over 100 µM and the TGI [3] was 33.6 µM. The TGI [4] was 30.8 µM, the TGI [5] was 26.8 µM and the TGI [6] was 54.4 µM. For the same molecule, the TGI [7] was 41.6 µM, the TGI [8] was over 100 µM and the TGI [9] was 39.7 µM. For the same molecule, the TGI [10] was 32.5 µM, the TGI [11] was over 100 µM and the TGI [12] was 64.5 µM. It also gave a TGI [13] of 55.2 µM, a TGI [14] of 39 µM and a TGI [15] of 80.6 µM. For the same molecule, the TGI [16] was 26.4 µM, the TGI [17] was over 100 µM and the TGI [18] was 27.7 µM. It also gave a TGI [19] of over 100 µM, a TGI [20] of 39.2 µM and a TGI [21] of 87.7 µM. For the same molecule, the TGI [22] was over 100 µM, the TGI [23] was 30.5 µM and the TGI [24] was 76.1 µM. It also gave a TGI [25] of 36.9 µM, a TGI [26] of 29.1 µM and a TGI [27] of 32.1 µM. For the same molecule, the TGI [28] was 40.9 µM, the TGI [29] was 61.7 µM and the TGI [30] was 32.7 µM. For the same molecule, the TGI [31] was 39.5 µM, the TGI [32] was over 100 µM and the TGI [33] was over 100 µM. For the same molecule, the TGI [34] was 44.4 µM, the TGI [35] was 38.5 µM and the TGI [36] was over 100 µM. For the same molecule, the TGI [37] was 47.9 µM, the TGI [38] was over 100 µM and the TGI [39] was 33 µM. The TGI [40] was 30.2 µM, the TGI [41] was 34.7 µM and the TGI [42] was 31.9 µM. For the same molecule, the TGI [43] was 88.2 µM, the TGI [44] was 42.1 µM and the TGI [45] was 72.5 µM. It also gave a TGI [46] of over 100 µM, a TGI [47] of 35 µM and a TGI [48] of over 100 µM. It also gave a TGI [49] of 42.9 µM, a TGI [50] of 42.3 µM and a TGI [51] of 62.5 µM.
Work on `CN(C)CCn1cnc2sc3ccccc3c21` yielded a TGI [1] of over 100 µM, a TGI [2] of over 100 µM and a TGI [3] of over 100 µM. For the same molecule, the TGI [4] was over 100 µM, the TGI [5] was over 100 µM and the TGI [7] was over 100 µM. The TGI [8] was over 100 µM, the TGI [9] was over 100 µM and the TGI [10] was over 100 µM. The TGI [11] was over 100 µM, the TGI [12] was over 100 µM and the TGI [13] was over 100 µM. It also gave a TGI [14] of over 100 µM, a TGI [15] of over 100 µM and a TGI [16] of over 100 µM. For the same molecule, the TGI [17] was over 100 µM, the TGI [18] was over 100 µM and the TGI [19] was over 100 µM. It also gave a TGI [20] of over 100 µM, a TGI [52] of over 100 µM and a TGI [21] of over 100 µM. For the same molecule, the TGI [22] was over 100 µM, the TGI [23] was over 100 µM and the TGI [25] was over 100 µM. The TGI [26] was over 100 µM, the TGI [27] was over 100 µM and the TGI [28] was over 100 µM. It also gave a TGI [29] of over 100 µM, a TGI [31] of over 100 µM and a TGI [32] of over 100 µM. It also gave a TGI [53] of over 100 µM, a TGI [54] of over 100 µM and a TGI [33] of over 100 µM. The TGI [34] was over 100 µM, the TGI [35] was over 100 µM and the TGI [36] was over 100 µM. The TGI [55] was over 100 µM, the TGI [37] was over 100 µM and the TGI [38] was over 100 µM. For the same molecule, the TGI [39] was over 100 µM, the TGI [40] was over 100 µM and the TGI [42] was over 100 µM. For the same molecule, the TGI [43] was 86.6 µM, the TGI [56] was over 100 µM and the TGI [44] was over 100 µM. It also gave a TGI [45] of over 100 µM, a TGI [46] of over 100 µM and a TGI [47] of over 100 µM. The TGI [48] was over 100 µM, the TGI [50] was over 100 µM and the TGI [57] was over 100 µM. It also gave a TGI [51] of over 100 µM.
With `COc1ccc(C2C(C#N)=C(O)NC(O)=C2C#N)cc1OC` the TGI [1] was over 100 µM, the TGI [2] was over 100 µM and the TGI [3] was over 100 µM. It also gave a TGI [4] of over 100 µM, a TGI [5] of over 100 µM and a TGI [6] of over 100 µM. For the same molecule, the TGI [7] was over 100 µM, the TGI [8] was over 100 µM and the TGI [9] was over 100 µM. It also gave a TGI [10] of over 100 µM, a TGI [11] of over 100 µM and a TGI [58] of over 100 µM. For the same molecule, the TGI [14] was over 100 µM, the TGI [15] was over 100 µM and the TGI [17] was over 100 µM. The TGI [18] was over 100 µM, the TGI [19] was over 100 µM and the TGI [52] was over 100 µM. It also gave a TGI [22] of over 100 µM, a TGI [24] of over 100 µM and a TGI [26] of over 100 µM. The TGI [28] was over 100 µM, the TGI [29] was over 100 µM and the TGI [30] was over 100 µM. The TGI [31] was over 100 µM, the TGI [32] was over 100 µM and the TGI [53] was over 100 µM. The TGI [54] was over 100 µM, the TGI [33] was over 100 µM and the TGI [34] was over 100 µM. The TGI [35] was over 100 µM, the TGI [55] was over 100 µM and the TGI [37] was over 100 µM. For the same molecule, the TGI [38] was over 100 µM, the TGI [39] was over 100 µM and the TGI [40] was over 100 µM. It also gave a TGI [41] of over 100 µM, a TGI [43] of over 100 µM and a TGI [56] of over 100 µM. It also gave a TGI [44] of over 100 µM, a TGI [47] of over 100 µM and a TGI [50] of over 100 µM. It also gave a TGI [51] of over 100 µM.
Work on `COc1ccc(C2SCc3nc4ccccc4n32)cc1` (configuration not stated) yielded a TGI [3] of over 100 µM, a TGI [4] of 6.25 µM and a TGI [5] of over 100 µM. It also gave a TGI [6] of 13.7 µM, a TGI [7] of 45.5 µM and a TGI [8] of 65.8 µM. The TGI [10] was over 100 µM, the TGI [11] was over 100 µM and the TGI [58] was 53.6 µM. It also gave a TGI [12] of over 100 µM, a TGI [15] of 85.4 µM and a TGI [17] of over 100 µM. It also gave a TGI [18] of over 100 µM, a TGI [20] of over 100 µM and a TGI [52] of 14.9 µM. For the same molecule, the TGI [21] was over 100 µM, the TGI [22] was over 100 µM and the TGI [23] was over 100 µM. The TGI [25] was over 100 µM, the TGI [28] was over 100 µM and the TGI [29] was over 100 µM. The TGI [30] was 66.5 µM, the TGI [31] was over 100 µM and the TGI [32] was over 100 µM. For the same molecule, the TGI [53] was over 100 µM, the TGI [54] was over 100 µM and the TGI [33] was over 100 µM. For the same molecule, the TGI [34] was over 100 µM, the TGI [35] was over 100 µM and the TGI [36] was over 100 µM. It also gave a TGI [55] of 5.42 µM, a TGI [37] of over 100 µM and a TGI [39] of 4.13 µM. For the same molecule, the TGI [40] was over 100 µM, the TGI [41] was 8.75 µM and the TGI [42] was over 100 µM. For the same molecule, the TGI [43] was 4.54 µM, the TGI [56] was over 100 µM and the TGI [44] was over 100 µM. It also gave a TGI [45] of 8.07 µM, a TGI [46] of over 100 µM and a TGI [47] of 7.02 µM. It also gave a TGI [49] of 5.43 µM, a TGI [50] of over 100 µM and a TGI [57] of over 100 µM. For the same molecule, the TGI [51] was over 100 µM.
